Data reported in US20230416205A1, “COMPOUNDS, COMPOSITIONS, AND METHODS” (Denali Therapeutics Inc, priority 2020, published 2023).
Where two headings read alike, the source gives them in different places.

Tested on: NLRP3
Experiment: IL-1β secretion assay in PMA-differentiated, LPS/nigericin-stimulated THP-1 cells (384-well, ELISA read-out)
Format: cell-based, human
Method in brief: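 THP-1 cells differentiated with PMA (5 ng/mL, 40 h), primed in serum-free medium with 25 ng/mL LPS for 2 h, treated with compounds 1 h (0.5% DMSO), then stimulated with nigericin for 2 h at 37 °C. Supernatant IL-1β measured by ELISA; responses normalized to LPS+5 μM nigericin and LPS-only controls.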

[1] = Homo sapiens, THP-1, IL-1β secretion, PMA-differentiated THP-1 cells, LPS then nigericin stimulation, ELISA read at 450 nm, read-out: Activity
[2] = Homo sapiens, THP-1, Table 4, IL-1β secretion, LPS/nigericin-stimulated THP-1 cells, read-out: IC50
[3] = Table 4, IL-1β secretion, LPS/nigericin-stimulated THP-1 cells, read-out: IC50

Structure (SMILES): O=C(CN1CC2(CC2)c2cc(Br)ccc2C1=O)N1Cc2cccnc2C1 [Example 125, 6-bromo-2-[2-(5,7-dihydropyrrolo[3,4-b]pyridin-6-yl)-2-oxoethyl]spiro[3H-isoquinoline-4,1′-cyclopropane]-1-one]
- IC50 [1]: > 15000 nM
- IC50 [2]: 26700 nM

Structure (SMILES): O=C(CN1CC2(CC2)c2cc(Br)ccc2C1=O)NC1CN2CCC1CC2 (stereo not shown) [Example 372, N-(1-azabicyclo[2.2.2]octan-3-yl)-2-(6-bromo-1-oxospiro[3H-isoquinoline-4,1′-cyclopropane]-2-yl)acetamide]
- IC50 (Homo sapiens, THP-1): 22200 nM

Structure (SMILES): O=C(CN1CC2(CC2)c2cc(Br)ccc2C1=O)Nc1nc2ccccc2[nH]1 [Example 145, N-(1H-benzimidazol-2-yl)-2-(6-bromo-1-oxospiro[3H-isoquinoline-4,1′-cyclopropane]-2-yl)acetamide]
- IC50 [1]: < 10000 nM
- IC50 [2]: 2660 nM

Structure (SMILES): CC1CN(CC(=O)Nc2ncccn2)C(=O)c2ccc(Br)cc21 (stereo not shown) [Example 74, 2-(6-bromo-4-methyl-1-oxo-3,4-dihydroisoquinolin-2-yl)-N-pyrimidin-2-yl-acetamide]
- IC50 [1]: < 10000 nM
- IC50 [2]: 1760 nM

Structure (SMILES): O=C(CN1CC2(CC2)c2cc(Br)ccc2C1=O)Nc1nc2n(n1)CCC2 [Example 188, 2-(6-bromo-1-oxospiro[3H-isoquinoline-4,1′-cyclopropane]-2-yl)-N-(6,7-dihydro-5H-pyrrolo[1,2-b][1,2,4]triazol-2-yl)acetamide]
- IC50 [1]: < 10000 nM
- IC50 [2]: 1290 nM

Structure (SMILES): O=C(CN1CC2(CC2)c2cc(Br)ccc2C1=O)Nc1nc2n(n1)CCCC2 [Example 373, 2-(6-bromo-1-oxospiro[3H-isoquinoline-4,1′-cyclopropane]-2-yl)-N-(5,6,7,8-tetrahydro-[1,2,4]triazolo[1,5-a]pyridin-2-yl)acetamide]
- IC50 [2]: 1590 nM

Structure (SMILES): O=C(CN1CC2(CC2)c2c(ccc(C3CC3)c2F)C1=O)Nc1ncc(F)cn1 [Example 100, 2-(6-cyclopropyl-5-fluoro-1-oxospiro[3H-isoquinoline-4,1′-cyclopropane]-2-yl)-N-(5-fluoropyrimidin-2-yl)acetamide]
- IC50 [1]: < 10000 nM
- IC50 [2]: 114 nM

Structure (SMILES): O=C(CN1CC2(CC2)c2cc(Br)ccc2C1=O)Nc1ccc2cn[nH]c2c1 [Example 43, 2-(6-bromo-1-oxo-spiro[3H-isoquinoline-4,1′-cyclopropane]-2-yl)-N-(1H-indazol-6-yl)acetamide]
- IC50 [1]: < 10000 nM
- IC50 [2]: 368 nM

Structure (SMILES): O=C(CN1CC2(CC2)c2cc(Br)ccc2C1=O)Nc1ccc2nccn2n1 [Example 180, 2-(6-bromo-1-oxospiro[3H-isoquinoline-4,1′-cyclopropane]-2-yl)-N-imidazo[1,2-b]pyridazin-6-ylacetamide]
- IC50 [1]: < 10000 nM
- IC50 [2]: 508 nM

Structure (SMILES): N#Cc1ccc2nc(NC(=O)CN3CC4(CC4)c4cc(Br)ccc4C3=O)oc2c1 [Example 207, 2-(6-bromo-1-oxospiro[3H-isoquinoline-4,1′-cyclopropane]-2-yl)-N-(6-cyano-1,3-benzoxazol-2-yl)acetamide]
- IC50 [1]: < 10000 nM
- IC50 [2]: 487 nM

Structure (SMILES): O=C(CN1CC2(CC2)c2cc(Br)ccc2C1=O)Nc1nc2c(o1)CCCC2 [Example 386, 2-(6-bromo-1-oxospiro[3H-isoquinoline-4,1′-cyclopropane]-2-yl)-N-(4,5,6,7-tetrahydro-1,3-benzoxazol-2-yl)acetamide]
- IC50 [2]: 1450 nM

Structure (SMILES): O=C(CN1CC2(CC2)c2cc(Br)ccc2C1=O)NCc1cccnc1C(F)(F)F [Example 151]
- IC50 [1]: < 10000 nM
- IC50 [2]: 9060 nM

Structure (SMILES): O=C(CN1CC2(CC2)c2cc(Br)ccc2C1=O)Nc1ccc2ncsc2c1 [Example 140, N-(1,3-benzothiazol-6-yl)-2-(6-bromo-1-oxospiro[3H-isoquinoline-4,1′-cyclopropane]-2-yl)acetamide]
- IC50 [1]: < 10000 nM
- IC50 [2]: 889 nM

Structure (SMILES): O=C(CN1CC2(CC2)c2cc(C(F)F)ccc2C1=O)Nc1ncc(F)cn1 [Example 96, 2-[6-(difluoromethyl)-1-oxospiro[3H-isoquinoline-4,1′-cyclopropane]-2-yl]-N-(5-fluoropyrimidin-2-yl)acetamide]
- IC50 [1]: < 10000 nM
- IC50 [2]: 1330 nM

Structure (SMILES): O=C(CN1CC2(CC2)c2cc(Br)ccc2C1=O)Nc1ncc(C2COC2)cn1 [Example 332, 2-(6-bromo-1-oxospiro[3H-isoquinoline-4,1′-cyclopropane]-2-yl)-N-[5-(oxetan-3-yl)pyrimidin-2-yl]acetamide]
- IC50 [2]: 768 nM

Structure (SMILES): C[C@H]1C[C@@]12CN(CC(=O)Nc1ncc(F)cn1)C(=O)c1ccc(Br)cc12 (single isomer, unassigned) [Example 281, 2-[(2′s,4r)-6-bromo-2′-methyl-1-oxospiro[3H-isoquinoline-4,1′-cyclopropane]-2-yl]-N-(5-fluoropyrimidin-2-yl)acetamide]
- IC50 [1]: < 10000 nM
- IC50 [3]: 108 nM

Structure (SMILES): N#CC12CC(NC(=O)CN3CC4(CC4)c4cc(Br)ccc4C3=O)(C1)C2 [Example 14, 2-(6-bromo-1-oxospiro[3H-isoquinoline-4,1′-cyclopropane]-2-yl)-N-(3-cyano-1-bicyclo[1.1.1]pentanyl)acetamide]
- IC50 [1]: < 10000 nM
- IC50 [2]: 3120 nM

Structure (SMILES): O=C(CN1CC2(CC2)c2c(ccc(Br)c2F)C1=O)Nc1ncc(F)cn1 [Example 41, 2-(6-bromo-5-fluoro-1-oxo-spiro[3H-isoquinoline-4,1′-cyclopropane]-2-yl)-N-(5-fluoropyrimidin-2-yl)acetamide]
- IC50 [1]: < 10000 nM
- IC50 [2]: 68 nM

Structure (SMILES): N#Cc1cnc(NC(=O)CN2C[C@]3(C[C@H]3F)c3cc(Br)ccc3C2=O)c(F)c1 [Example 275, 2-[(2′r,4s)-6-bromo-2′-fluoro-1-oxospiro[3H-isoquinoline-4,1′-cyclopropane]-2-yl]-N-(5-cyano-3-fluoropyridin-2-yl)acetamide]
- IC50 [1]: < 10000 nM
- IC50 [2]: 70 nM

Structure (SMILES): O=C(CN1C[C@@]2(C[C@@H]2F)c2c(ccc(Br)c2F)C1=O)Nc1ncc(F)cn1 (single isomer, unassigned) [Example 220, 2-[(2′s,4r)-6-bromo-2′,5-difluoro-1-oxospiro[3H-isoquinoline-4,1′-cyclopropane]-2-yl]-N-(5-fluoropyrimidin-2-yl)acetamide]
- IC50 [1]: < 10000 nM
- IC50 [2]: 20 nM

Structure (SMILES): O=C(CN1CC2(CC2)c2cc(Br)ccc2C1=O)NCc1ccncc1 [Example 122, 2-(6-bromo-1-oxospiro[3H-isoquinoline-4,1′-cyclopropane]-2-yl)-N-(pyridin-4-ylmethyl)acetamide]
- IC50 [1]: > 15000 nM
- IC50 [2]: 29900 nM

Structure (SMILES): O=C(CN1CC2(CC2)c2cc(Br)ccc2C1=O)Nc1ncc(-n2cccn2)cc1F [Example 186, 2-(6-bromo-1-oxospiro[3H-isoquinoline-4,1′-cyclopropane]-2-yl)-N-(3-fluoro-5-pyrazol-1-ylpyridin-2-yl)acetamide]
- IC50 [1]: < 10000 nM
- IC50 [2]: 5230 nM

Structure (SMILES): O=C(CN1C[C@]2(C[C@H]2F)c2cc(C3(F)CC3)ccc2C1=O)Nc1ncc(F)cn1 [Example 249]
- IC50 [1]: < 10000 nM
- IC50 [2]: 15 nM

Structure (SMILES): O=C(CN1CC2(CC2)c2cc(Br)ccc2C1=O)Nc1ncc(Cl)cc1F [Example 8]
- IC50 [1]: < 10000 nM
- IC50 [2]: 216 nM

Structure (SMILES): O=C(CN1CC2(CC2)c2c(ccc(C(F)(F)F)c2F)C1=O)Nc1ncc(F)cn1 [Example 35, 2-[5-fluoro-1-oxo-6-(trifluoromethyl)spiro[3H-isoquinoline-4,1′-cyclopropane]-2-yl]-N-(5-fluoropyrimidin-2-yl)acetamide]
- IC50 [1]: < 10000 nM
- IC50 [2]: 366 nM

Structure (SMILES): Cc1nc(-c2ccnc(NC(=O)CN3CC4(CC4)c4cc(Br)ccc4C3=O)n2)cs1 [Example 187, 2-(6-bromo-1-oxospiro[3H-isoquinoline-4,1′-cyclopropane]-2-yl)-N-[4-(2-methyl-1,3-thiazol-4-yl)pyrimidin-2-yl]acetamide]
- IC50 [1]: < 10000 nM
- IC50 [2]: 871 nM

Structure (SMILES): O=C(CN1CC2(CC2)c2cc(Br)ccc2C1=O)Nc1nc2ccncc2o1 [Example 212, 2-(6-bromo-1-oxo-spiro[3H-isoquinoline-4,1′-cyclopropane]-2-yl)-N-oxazolo[5,4-c]pyridin-2-yl-acetamide]
- IC50 [1]: < 10000 nM
- IC50 [2]: 589 nM

Structure (SMILES): COC1(C)CC(NC(=O)CN2CC3(CC3)c3cc(Br)ccc3C2=O)C1 (stereo not drawn) [Example 340, 2-(6-bromo-1-oxospiro[3H-isoquinoline-4,1′-cyclopropane]-2-yl)-N-(3-trans-methoxy-3-methylcyclobutyl)acetamide]
- IC50 [3]: 7870 nM

Structure (SMILES): CCN1CC[C@@H](NC(=O)CN2CC3(CC3)c3cc(Br)ccc3C2=O)C1 [Example 384, 2-(6-bromo-1-oxospiro[3H-isoquinoline-4,1′-cyclopropane]-2-yl)-N-[(3R)-1-ethylpyrrolidin-3-yl]acetamide]
- IC50 [2]: 11600 nM

Structure (SMILES): O=C(CN1CC2(CC2)c2c(ccc3sccc23)C1=O)Nc1ncc(F)cn1 [Example 315, N-(5-fluoropyrimidin-2-yl)-2-(6-oxospiro[8H-thieno[3,2-f]isoquinoline-9,1′-cyclopropane]-7-yl)acetamide]
- IC50 [2]: 8920 nM

Structure (SMILES): O=C(CN1C[C@]2(C[C@H]2F)c2cc(Br)ccc2C1=O)Nc1nc2ccccn2n1 [Example 271]
- IC50 [1]: < 10000 nM
- IC50 [2]: 29 nM

Structure (SMILES): N#Cc1ccc(NC(=O)CN2CC3(CC3)c3cc(Br)ccc3C2=O)nc1 [Example 72, 2-(6-bromo-1-oxospiro[3H-isoquinoline-4,1′-cyclopropane]-2-yl)-N-(5-cyanopyridin-2-yl)acetamide]
- IC50 [1]: < 10000 nM
- IC50 [2]: 511 nM

Structure (SMILES): O=C(CN1CC2(CC2)c2cc(Br)ccc2C1=O)Nc1cccc2ccncc12 [Example 148, 2-(6-bromo-1-oxospiro[3H-isoquinoline-4,1′-cyclopropane]-2-yl)-N-isoquinolin-8-ylacetamide]
- IC50 [1]: < 10000 nM
- IC50 [2]: 1790 nM

Structure (SMILES): N#CC1CC(NC(=O)CN2CC3(CC3)c3cc(Br)ccc3C2=O)C1 (stereo not shown) [Example 65, 2-(6-bromo-1-oxo-spiro[3H-isoquinoline-4,1′-cyclopropane]-2-yl)-N-(3-cyanocyclobutyl)acetamide]
- IC50 [1]: < 10000 nM
- IC50 [2]: 6860 nM
